Literature values, collected in PMC4207555 (Drug Design, Development and Therapy, 2014).
Like-named read-outs stand apart in the source and are kept apart here. Blank lines part the entries; values can stand above or below the compound they belong to.

Tests used:
[1] = system: bacterial reverse mutation; details: ref Sanofi, data on file, 2010
Breast Calc18/TXT = details: P-glycoprotein-overexpressing Calc18/TXT
[2] = humans
[3] = system: cell lines with resistance mechanisms other than P-glycoprotein overexpression
[4] = rats, ref Sanofi, data on file; for HNLD as single dose: 2013
[5] = dogs
[6] = not given; remark: listed apart in the source
plasma protein [7] = details: rats; ref Sanofi, data on file, 2010
[8] = system: P-glycoprotein-expressing cell lines bearing acquired resistance; details: range across P-glycoprotein-expressing cell lines
[9] = not given; remark: listed apart in the source
[10] = not given; remark: listed apart in the source
bone marrow = details: ref Sanofi, data on file, 2010
[11] = mice, ref Sanofi, data on file; for NOEL for central neurotoxicity / NOEL for peripheral neurotoxicity: 2010
plasma protein [12] = details: rabbits; ref Sanofi, data on file, 2010
[13] = after IV administration; ref Sanofi, data on file, 2010
microtubules = details: read-out: stabilization of microtubules against cold-induced depolymerization (concentration producing 50% cell killing)
HID28 = details: for percentage tumor volume change (treated/control mean tumor volume): Day 35
[14] = mice
plasma protein [15] = details: mice; ref Sanofi, data on file, 2010
[16] = dogs, ref Sanofi, data on file, 2010
[17] = ref Sanofi, data on file, 2010
[18] = single-dose studies in mice, rats, and dogs; ref Sanofi, data on file, 2013
plasma protein [19] = details: humans; ref Sanofi, data on file, 2010
B16/TXT melanoma = details: B16/TXT acquired-resistance model, no P-glycoprotein overexpression
[20] = rats, ref Sanofi, data on file, 2010
[21] = male or female rats; ref Sanofi, data on file, 2010
[22] = not given; remark: listed apart in the source
[23] = system: pediatric sarcoma xenograft; details: five of six models
[24] = system: human intracranial glioblastoma xenograft; details: two models, respective HNTDs
Prostate DU 145 = details: DU145 xenograft
[25] = dogs; ref Sanofi, data on file, 2013
[26] = in situ brain perfusion, wild-type mice; ref 47 (unpublished data)
[27] = system: mCRPC that had progressed on previous docetaxel-based therapy; details: for median overall survival / median progression-free survival: plus prednisone/prednisolone
Breast UISO BCA-1 = details: UISO BCA-1, dose level below HNTD (9.3 mg/kg per injection)
[28] = ref Sanofi, data on file, 2010; remark: listed apart in the source
plasma protein [29] = details: dogs; ref Sanofi, data on file, 2010
[30] = Phase III clinical studies in a number of tumor types
[31] = 0–48 hours, mice bearing subcutaneous MA16/C

Compound: CO[C@H]1C(=O)[C@]2(C)[C@@H](OC)C[C@H]3OC[C@@]3(OC(C)=O)[C@H]2[C@H](OC(=O)c2ccccc2)[C@]2(O)C[C@H](OC(=O)[C@H](O)[C@@H](NC(=O)OC(C)(C)C)c3ccccc3)C(C)=C1C2(C)C [Cabazitaxel]
mutations in the bacterial reverse mutation (Ames) test [1]: did not induce mutations
antitumor activity (Breast Calc18/TXT): not active
uptake across the BBB, P-glycoprotein-deficient versus control mice (P-glycoprotein): threefold higher
pathway C (t-butyl-hydroxylation on the lateral chain), share of the dose [2]: 21%
two O-demethylation pathways (A and B), share of the dose excreted [2]: 40%
cross-resistance [3]: no cross-resistance
NOEL for central neurotoxicity ([4]; single-dose, 1 min infusion, 2010): >10 mg/kg/day
NOEL for central neurotoxicity ([4]; ten-cycle, 1 hr infusion, 2010): >10/20
NOEL for peripheral neurotoxicity ([4]; ten-cycle, 1 hr infusion, 2010): <1 mg/kg/day
HNLD as single dose [4]: 2.5 mg/kg
population half-life, initial phase (170 patients): 4.4 min
population half-life, intermediate phase (170 patients): 1.6 h
population half-life, terminal phase (170 patients): 95.1 h
mean volume of distribution at steady state (population PK estimate) (median BSA 1.84 m^2): 2,640 L/m^2
plasma clearance (population PK estimate) (median BSA 1.84 m^2): 26.4 L/h/m^2
two O-demethylation pathways (A and B), share of the dose excreted [5]: 54%
logP [6]: 3.9
Plasma protein binding (plasma protein [7]): 95.5%
Resistance factors [8]: 2–10
radioactivity excreted via the biliary route, % of the administered dose ([9]; bile-duct-cannulated male rats, within 48 hours): 65%
pathway C (t-butyl-hydroxylation on the lateral chain), share of the dose excreted ([9]; male and female rats): 49%–55
pathway D (cleavage of the parent drug), share of the dose ([10]; all species including humans): < 0.3%
excretion via the urinary route ([10]; mice, rats, and dogs): 1%–4
excretion, % of the administered dose ([10]; mice, rats, and dogs): 91%–95
radioactivity excreted in the feces, % of the administered dose ([10]; mice, rats, and dogs): 87%–91
administered dose excreted unchanged ([10]; mice, rats, dogs, and humans): less than 2.5%
lag time to 50% aggregation (reduction in lag time for tubulin assembly) (tubulin): 0 to 0.1 µmol/L
in vivo rat bone marrow micronucleus test (bone marrow): increase in micronuclei
NOEL for central neurotoxicity ([11]; 5-day, 1 min infusion): >7 mg/kg/day
NOEL for peripheral neurotoxicity ([11]; 5-day, 1 min infusion): 3 mg/kg/day
NOEL for central neurotoxicity ([11]; five-cycle, 1 hr infusion): 10 mg/kg/day
NOEL for peripheral neurotoxicity ([11]; five-cycle, 1 hr infusion): 5 mg/kg/day
NOEL for central neurotoxicity ([11]; single-dose, 1 min infusion): 10 mg/kg/day
NOEL for peripheral neurotoxicity ([11]; single-dose, 1 min infusion): 10 mg/kg/day
NOEL for central neurotoxicity ([11]; single-dose, 1 hr infusion): 10 mg/kg/day
NOEL for central neurotoxicity ([11]; weekly, 1 min infusion): 5 mg/kg/day
NOEL for peripheral neurotoxicity ([11]; weekly, 1 min infusion): 5 mg/kg/day
HNLD as single dose [11]; 2013: 30 mg/kg
Plasma protein binding (plasma protein [12]): 91.4%
effects in CNS, respiratory, gastrointestinal, renal, and cardiovascular systems [13]: no physiologically relevant effects
IC50 (microtubules): 100 to 250 nM
partial remissions (HID28; HID28, 20 mg/kg): four out of ten
percentage tumor volume change (treated/control mean tumor volume) (HID28; HID28, 20 mg/kg): 1.4%
pathway C (t-butyl-hydroxylation on the lateral chain), share of the dose [14]: 41%
two O-demethylation pathways (A and B), share of the dose excreted [14]: 45%
Plasma protein binding (plasma protein [15]): 99.3%
volume of distribution at steady state ([16]; single IV administration): 3.3 to 14.5 L/kg
Plasma clearance ([16]; single IV infusion): 41.7 to 88.3 mL/min/kg
terminal half-life [16]: 3.0 to 4.3 h
volume of distribution at steady state ([17]; healthy mice, single IV administration): 2.5 to 3.7 L/kg
Plasma clearance ([17]; normal mice, single IV infusion): 15 to 18.3 mL/min/kg
terminal half-life ([17]; normal mice): 5.1 to 7.6 h
highest non-lethal doses, times lower with cabazitaxel than with docetaxel [18]: 3- to 4 times
Plasma protein binding (plasma protein [19]): 91.9%
antitumor activity (B16/TXT melanoma): demonstrated antitumor activity
volume of distribution at steady state ([20]; single IV administration): 22.7 L/kg
Plasma clearance ([20]; single IV infusion): 80 mL/min/kg
terminal half-life [20]: 10 h
mating performance or fertility [21]: did not affect
overall brain exposure relative to plasma [22, 31]: 3.7 fold
overall brain exposure relative to tumor tissue [22, 31]: 2.3 fold
time to maximum drug concentrations in tumor tissue ([22]; MA16/C-bearing mice, 40 mg/kg): ≤ 15 min
concentration within the tumor versus plasma ([22]; after 48 hours, MA16/C-bearing mice, 40 mg/kg): 40 fold
exposure in tumor compared with plasma ([22]; during the 48 hours following administration, 40 mg/kg): 1.6 times
exposure in tumor compared with plasma ([22]; entire experimental period (168 hours), 40 mg/kg): 2.9 times
volume of distribution at steady state ([22]; tumor-bearing mice, single IV administration, ref Sanofi, data on file, 2010): 8.8 L/kg
Plasma clearance ([22]; tumor-bearing mice, single IV infusion, ref Sanofi, data on file, 2010): 28.3 mL/min/kg
terminal half-life ([22]; tumor-bearing mice, ref Sanofi, data on file, 2010): 26 h
tumor growth inhibition and tumor regression versus equivalent doses of docetaxel [23]: significantly greater tumor growth inhibition and tumor regression
antitumor activity (increase in life span) versus docetaxel [24]: enhanced antitumor activity compared with docetaxel
complete tumor regressions (CR) (Prostate DU 145): 100%
long-term tumor-free survival (TFS) (Prostate DU 145): 83%
HNLD as single dose [25]: 0.5 mg/kg
brain penetration versus paclitaxel or docetaxel [26]: two- to threefold greater
grade ≥3 anemia, patients [27]: 11%
grade ≥3 diarrhea [27]: 6%
grade ≥3 leukopenia, patients [27]: 68%
grade ≥3 neutropenia, patients [27]: 82%
patients who died within 30 days of the last infusion [27]: 5%
patients with dose reduction [27]: 12%
patients with treatment delay [27]: 28%
peripheral neuropathy, patients [27]: 14%
prostate-specific antigen response [27]: 39.2%
rate of objective tumor response [27]: 14.4%
median overall survival [27]: 15.1 months
median progression-free survival [27]: 2.8 months
grade 3 peripheral neuropathy, patients ([27]; three patients): 1%
hazard ratio, death ([27]; versus mitoxantrone): 0.70
hazard ratio, progression-free survival ([27]; versus mitoxantrone): 0.74
reduction in the risk of death ([27]; versus mitoxantrone): 30%
log cell kill (Breast UISO BCA-1): 4.4
in vitro chromosome aberration test [28]: increased number of polyploid cells
Plasma protein binding (plasma protein [29]): 97.1%

administered dose of 14C excreted in the feces ([2]; over 7 days): 80%
administered dose of 14C recovered in the urine ([2]; over 7 days): approximately 5%
HNLD as single dose [4]: 10 mg/kg
logP [6]: 3.2
Compound: CC(=O)O[C@@]12CO[C@@H]1C[C@H](O)[C@@]1(C)C(=O)[C@H](O)C3=C(C)[C@@H](OC(=O)[C@H](O)[C@@H](NC(=O)OC(C)(C)C)c4ccccc4)C[C@@](O)([C@@H](OC(=O)c4ccccc4)[C@H]21)C3(C)C [Docetaxel, reference compound]
incidence of grade 3/4 sensory neuropathy [30]: 0%–7
Resistance factors [8]: 5–59
lag time to 50% aggregation (reduction in lag time for tubulin assembly) (tubulin): 0 to 0.1 µmol/L
IC50 (microtubules): 100 to 250 nM
percentage tumor volume change (treated/control mean tumor volume) (HID28; HID28, 20 mg/kg): 16.7%

Compound: CC(=O)O[C@H]1CC[C@@]2(C)C(=CC[C@@H]3[C@@H]2CC[C@]2(C)C(c4cccnc4)=CC[C@@H]32)C1 [abiraterone acetate, reference compound]
antitumor activity (HID28; HID28, 50 mg/kg orally daily for 21 days): No antitumor activity

Compound: O=C1c2c(O)ccc(O)c2C(=O)c2c(NCCNCCO)ccc(NCCNCCO)c21 [mitoxantrone, reference compound]
prostate-specific antigen response [27]: 17.8%
rate of objective tumor response [27]: 4.4%
median overall survival [27]: 12.7 months
median progression-free survival [27]: 1.4 months
